The source of these data is ChEMBL document CHEMBL5338738, “Discovery of Novel Sesquiterpene Lactone Derivatives as Potent PKM2 Activators for the Treatment of Ulcerative Colitis” (J Med Chem, 2023).

The subject of data set [1] is CD4+ve Th. Nature of the data set: Inhibition of aerobic glycolysis in anti-CD3/CD28 stimulated C57BL/6 mouse mesenteric lymph node CD4+ve Th cells assessed as downregulation of PFK1 protein expression level at 0.3 to 3 uM incubated for 96 hrs in presence of recombinant human TGF-beta, recombinant mouse IL-6 and recombinant mouse IL-23 by Western blot analysis. It counts as functional, cell-based. To be noted: dose 0.3-3 µM. For orientation: Immunoblotting shows a protein as a band on a membrane.

The nature of data set [2]: Microsomal stability in rat liver microsomes assessed as intrinsic clearance. It counts as ADME, Microsome. To be noted: read-out: CLH. (In general: Microsomes from liver hold many membrane-bound enzymes, among them those of drug oxidation.)
In data set [3] the test system is CD4+ve Th. Nature of the data set: Inhibition of aerobic glycolysis in anti-CD3/CD28 stimulated C57BL/6 mouse mesenteric lymph node CD4+ve Th cells assessed as decrease in ATP production at 0.3 to 3 uM incubated for 96 hrs in presence of recombinant human TGF-beta, recombinant mouse IL-6 and recombinant mouse IL-23 by colorimetric assay. Type of data set: functional, cell-based. Conditions: dose 0.3-3 µM.

In data set [4] the target is Pyruvate kinase PKM (Homo sapiens, UniProt P14618). Put plainly: Activation of PKM2 (unknown origin) incubated for 30 mins.
Data set [5] can be described thus: AUCt in Sprague-Dawley rat at 75 mg/kg,po and measured upto 24 hrs by LC-MS/MS analysis. It counts as ADME, organism-based. Set-up: time < 24 hrs, dose 75 mg/kg, route po. To be noted: in vivo.
Data set [6] is described as follows: Microsomal stability in rat liver microsomes assessed as hepatic clearance. It counts as ADME, Microsome.
Data set [7] in a line: Microsomal stability in rat liver microsomes assessed as half life. It counts as ADME, Microsome.
Data set [8] deals with Mus musculus. Nature of the data set: Anti-colitis activity against TNBS-induced ulcerative colitis BALB/c mouse model assessed as increase in survival rate at 12.5 to 25 mg/kg, po for consecutive 7 days. Type of data set: functional, organism-based. To be noted: dose 12.5-25 mg/kg, time 7.0 day.
A short description of data set [9]: Inhibition of Treg cells differentiation in anti-CD3/CD28 stimulated C57BL/6 mouse mesenteric lymph node CD4+ve Th cells assessed as decrease in proportion of Foxp3-positive Treg cells at 0.3 uM incubated for 96 hrs in presence of recombinant human TGF-beta by flow cytometry (Rvb= 21.1%). Conditions: C57BL/6, CD4+ve Th. Type of data set: functional.

Activity calls are given as the source filed them.

Chain of Pyruvate kinase PKM (P14618 whole entry): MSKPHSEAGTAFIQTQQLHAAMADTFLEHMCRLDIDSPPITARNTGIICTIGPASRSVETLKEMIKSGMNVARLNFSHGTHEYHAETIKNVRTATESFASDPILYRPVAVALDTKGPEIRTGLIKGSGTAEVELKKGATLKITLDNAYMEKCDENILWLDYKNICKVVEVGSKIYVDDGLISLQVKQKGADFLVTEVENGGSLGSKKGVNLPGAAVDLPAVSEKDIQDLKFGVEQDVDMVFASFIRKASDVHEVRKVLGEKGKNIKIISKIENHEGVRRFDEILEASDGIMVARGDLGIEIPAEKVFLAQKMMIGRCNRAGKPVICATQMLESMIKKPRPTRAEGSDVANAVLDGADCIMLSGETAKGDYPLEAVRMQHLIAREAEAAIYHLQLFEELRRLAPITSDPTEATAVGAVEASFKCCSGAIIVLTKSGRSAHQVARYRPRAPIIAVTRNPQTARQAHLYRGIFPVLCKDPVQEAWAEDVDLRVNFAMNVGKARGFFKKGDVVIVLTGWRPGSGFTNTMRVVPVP

For the compound `C=C1C(=O)O[C@H]2[C@H]1CC[C@@]1(C)[C@@H](CC[C@@]3(C)O[C@@H]23)C1(F)F`, the inhibition entry in [1] and in data set [3] was “Active” throughout. Moreover, the microsomal CLint in data set [2] amounted to 110 µL/min/mg. In addition, in data set [4], the response was half-maximal at 202 nM (EC50). The AUC(0-t) (commonly the area under the concentration-time curve up to a stated or last time point) at 24 h in data set [5] is 322 ng·h/mL. Besides, in data set [6], the CLhep predicted was 43.1 mL/min/kg. For the same compound, the half-life (commonly the time needed for the level to fall by half in the phase considered) in [7] stood at 12.6 min. Besides, the result in data set [8] was Active. Also, the Foxp3+ cells at 0.3 µM in data set [9] was found to be 18.4%.
